Results published in patent US8541455B2, “Derivatives of 2-pyridin-2-yl-pyrazol-3(2H)-one, preparation and therapeutic use thereof as HIF activators” (Sanofi, priority 2008, dated 2013).

Legend:
[1] = tested on: EPO secretion by Hep3B cells; experiment: Measurement of the secretion of EPO by Hep3B hepatocytes (ELISA on supernatant); type: cell-based; conditions: Homo sapiens, 18 hours incubation under normoxia, EPO in supernatant, 50% of the maximum response of this same compound
From the text: 2. Measurement of the Secretion of VEGF and EPO by Hep3B Hepatocytes 2.1. Object
HIF is a transcription factor involved in the adaptation of cells to hypoxia. Since the genes activated by HIF are involved in the adaptive response of cells to hypoxia and of tissues to ischaemia, the object is to identify and characterize compounds that stabilize HIF1-alpha in cells in order to amplify or mimic its beneficial effect. HIF1-alpha was identified following the analysis of the EPO gene promoter, which makes this protein one of the first markers of HIF1-alpha activation. Moreover, VEGF is also identified in the literature as one of the main markers of HIF activation. It is for this reason that measurement of these two proteins was selected for characterizing compounds that are HIF activators in Hep3B cells.
The object was thus to develop a sensitive screening test, adaptable to 96-well plates, for directly measuring the amount of VEGF and EPO in the supernatant of the Hep3B cells (cells derived from a human hepatocarcinoma) in response to the potential HIF activators.
The test is an ELISA test for measuring VEGF and EPO in the supernatant of Hep3B cells treated under hypoxia or with deferoxamine as controls or with the potential HIF activators. The test was adapted to a 96-well plate, allowing greater compound screening capacity.
• 2.3.1 Experiment Plan • 1) Inoculation of the cells on D0 • 2) Adherence for 6 hours under normoxia • 3) Preparation and addition of the products (Biomek 2000 and FX) • 4) Incubation under normoxia for 18 hours • 5) EPO and VEGF assay in the supernatant on D+1 • 2.3.2 Inoculation of the Cells
The cells are subcultured into 100 μl of culture medium (10% FCS) in black, opaque-bottomed 96-well plates (reference Costar 3916) at 30 000 cells/well, with Multidrop. • 2.3.3 Treatment of the Cells
The test products are prepared at 10^−2 M in 100% DMSO and then diluted to […] in medium containing 0.1% FCS (6 μl in 194 μl of MEM). 200 μl of each compound are deposited in column 12 of a 96-well plate. Dilution ranges from […] to 3×10^−8M are prepared with Biomek 2000 (programme: range of 9 points in series). 100 μl of MEM 0.1% FCS and Deferoxamine 5×10^−3M are added as controls to column 3 and, respectively, to wells A,B,C,D and wells E,F,G,H • DL Plate Distribution in Cell Plates
The medium of the cells inoculated the day before into 96-well plates is changed for 90 μl of medium containing 0.1% FCS and 10 μl are distributed with FX 96 from the 96-well DL plates to the cell plates.
The cell plates thus treated are placed for 18 hours in an incubator at 37° C. (ambient O2, 6% CO2).
The supernatants (80 μl) of the Hep3B cells in the 96-well plates treated with the potential HIF activators are recovered with a multichannel pipette for simultaneous assay of the VEGF and the EPO by ELISA according to the supplier's instructions (Kit EPO Mesoscale (ref K15122B-2)).
The activating activity of a compound with respect to HIF is given by the concentration that produces 50% of the maximum response of this same compound in Table IV below.

SMILES	melting point [°C]	EC50 [1] [nM]
CCN(c1ccccc1)S(=O)(=O)c1ccc(-n2[nH]c(C)c(Cc3cccc(COC)c3)c2=O)nc1 [Compound 34, N-ethyl-6-{4-[3-(methoxymethyl)benzyl]-3-methyl-5-oxo-2,5-dihydro-1H-pyrazol-1-yl}-N-phenylpyridine-3-sulfonamide]		900
O=c1c(Cc2ccccc2)c[nH]n1-c1ccc(S(=O)(=O)N(C[C@@H](O)CO)C2CCCC2)cn1 [Compound 142, 6-(4-benzyl-5-oxo-2,5-dihydro-1H-pyrazol-1-yl)-N-cyclopentyl-N-[(2R)-2,3-dihydroxypropyl]pyridine-3-sulfonamide]	184	
O=c1c(Cc2ccccc2)c[nH]n1-c1ccc(S(=O)(=O)N(CC(O)CO)c2ccccc2)cn1 (stereo not shown) [Compound 143, 6-(4-benzyl-5-oxo-2,5-dihydro-1H-pyrazol-1-yl)-N-(2,3-dihydroxypropyl)-N-phenylpyridine-3-sulfonamide]	174	
CCC(C)(C)N(C)S(=O)(=O)c1ccc(-n2[nH]cc(Cc3cccnc3)c2=O)nc1 [Compound 145]	162	
CN(C1CCCC1)S(=O)(=O)c1ccc(-n2[nH]cc(C(CC(=O)NCC(F)(F)F)c3ccccc3)c2=O)nc1 (stereo not shown) [Compound 146, 3-(2-{5-[cyclopentyl(methyl)sulfamoyl]pyridin-2-yl}-3-oxo-2,3-dihydro-1H-pyrazol-4-yl)-3-phenyl-N-(2,2,2-trifluoroethyl)propanamide]	80	
O=c1c(Cc2ccccc2)c[nH]n1-c1ccc(S(=O)(=O)N(CC(CO)CO)C2CCCC2)cn1 [Compound 147, 6-(4-benzyl-5-oxo-2,5-dihydro-1H-pyrazol-1-yl)-N-cyclopentyl-N-[3-hydroxy-2-(hydroxymethyl)propyl]pyridine-3-sulfonamide]	> 260	
O=c1c(Cc2ccccc2)c[nH]n1-c1ccc(S(=O)(=O)N(C[C@H](O)CO)C2CCCC2)cn1 [Compound 148, 6-(4-benzyl-5-oxo-2,5-dihydro-1H-pyrazol-1-yl)-N-cyclopentyl-N-[(2S)-2,3-dihydroxypropyl]pyridine-3-sulfonamide]	184	
O=c1c(Cc2ccccc2)c[nH]n1-c1ccc(S(=O)(=O)N[C@H]2CCC[C@@H]2O)cn1 [Compound 149]	176	
CC(C)(C)NS(=O)(=O)c1ccc(-n2[nH]cc(Cc3ccncc3)c2=O)nc1 [Compound 150]	226	
CN(c1ccccc1)S(=O)(=O)c1ccc(-n2[nH]cc(Cc3ccccc3)c2=O)nc1 [Compound 153]	198	
CCOC(=O)CC(c1ccccc1)c1c[nH]n(-c2ccc(S(=O)(=O)NC(C)(C)C)cn2)c1=O (stereo not shown) [Compound 155]	130	
O=c1c(Cc2ccccc2)c[nH]n1-c1ccc(S(=O)(=O)NCCO)cn1 [Compound 157]	180	
COc1ccc(Cc2c(C)[nH]n(-c3ccc(S(=O)(=O)N(C)C(C)(C)C)cn3)c2=O)nc1 [Compound 160]	165	
Cc1[nH]n(-c2ccccn2)c(=O)c1Cc1ccccc1C#N [Compound 172]	157	
Cc1[nH]n(-c2ccccn2)c(=O)c1Cc1ccc(C#N)cc1 [Compound 173]	154	
Cc1[nH]n(-c2ccccn2)c(=O)c1Cc1ccncc1 [Compound 175]	162	
Cc1[nH]n(-c2ccccn2)c(=O)c1Cc1cccc(C#N)c1 [Compound 177]	90	
COc1cc(Cc2c(C)[nH]n(-c3ccccn3)c2=O)cc(OC)c1 [Compound 179]	96	
Cc1[nH]n(-c2ccccn2)c(=O)c1Cc1ccc(S(C)(=O)=O)cc1 [Compound 180]	144	
COCCOc1cccc(Cc2c(C)[nH]n(-c3ccccn3)c2=O)c1 [Compound 181]	68	
Cc1[nH]n(-c2ccccn2)c(=O)c1Cc1ccccc1 [Compound 182]	110	
Cc1[nH]n(-c2ccccn2)c(=O)c1Cc1cccnc1 [Compound 183]	80	
COc1ccc(OC)c(Cc2c(C)[nH]n(-c3ccccn3)c2=O)c1 [Compound 184]	62	

Further lines, with some results ahead:

melting point [°C]	SMILES	EC50 [1] [nM]
78	Cc1[nH]n(-c2ccccn2)c(=O)c1Cc1cccc(C(F)(F)F)c1 [Compound 185]	
94	Cc1[nH]n(-c2ccccn2)c(=O)c1Cc1ccc(C(F)(F)F)cc1 [Compound 186]	
106	Cc1[nH]n(-c2ccccn2)c(=O)c1Cc1ccccc1C(F)(F)F [Compound 188]	
110	Cc1[nH]n(-c2ccccn2)c(=O)c1Cc1ccc(N(C)C)cc1 [Compound 189]	
96	COc1ccc(Cc2c(C)[nH]n(-c3ccccn3)c2=O)cc1 [Compound 191]	
254	COc1ccccc1Cc1c(C)[nH]n(-c2ccccn2)c1=O [Compound 192]	
120	COc1cccc(Cc2c(C)[nH]n(-c3ccccn3)c2=O)c1 [Compound 193]	
76	CCc1[nH]n(-c2ccccn2)c(=O)c1Cc1ccccc1 [Compound 195]	
128	Cc1[nH]n(-c2ccccn2)c(=O)c1CCc1ccccc1 [Compound 196]	
176	Cc1[nH]n(-c2ccc(S(=O)(=O)c3ccccc3)cn2)c(=O)c1Cc1cccnc1 [Compound 197, 5-methyl-2-[5-(phenylsulfonyl)pyridin-2-yl]-4-(pyridin-3-ylmethyl)-1,2-dihydro-3H-pyrazol-3-one]	
160	CC(C)(C)COC(=O)c1ccc(-n2[nH]cc(Cc3cccnc3)c2=O)nc1 [Compound 198, 2,2-dimethylpropyl 6-[5-oxo-4-(pyridin-3-ylmethyl)-2,5-dihydro-1H-pyrazol-1-yl]pyridine-3-carboxylate]	
